Results taken from PubChem BioAssay AID1918949 (Molecular Pharmacology Branch, DTP, NCI, 2023).

Tested on: K24384-001-R-PDC complex spheroid viability
Assay: Anticancer human tumor K24384-001-R-PDC patient-derived pancreatic adenocarcinoma cell line growth inhibition
Conditions: for IC50: curve of first compound; for viability, T/C: stronger effect = lower value
Method in brief: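 Multicellular complex spheroids of tumor cells with human endothelial cells (HUVEC) and mesenchymal stem cells; the LSD1 inhibitor iadademstat was combined with standard-of-care or investigational agents. Top concentration at or near clinical Cmax, half-log dilutions; final DMSO ≤0.25%.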

[1] = second compound 0.1 µM, first compound 0.00949 µM
[2] = second compound 0.1 µM, first compound 0.03 µM
[3] = second compound 0.1 µM, first compound 0.0949 µM
[4] = second compound 0.1 µM, first compound 0.3 µM
[5] = second compound 0.316 µM, first compound 0.00949 µM
[6] = second compound 0.316 µM, first compound 0.03 µM
[7] = second compound 0.316 µM, first compound 0.0949 µM
[8] = second compound 0.316 µM, first compound 0.3 µM
[9] = second compound 1 µM, first compound 0.00949 µM
[10] = second compound 1 µM, first compound 0.03 µM
[11] = second compound 1 µM, first compound 0.0949 µM
[12] = second compound 1 µM, first compound 0.3 µM
[13] = second compound 3.16 µM, first compound 0.00949 µM
[14] = second compound 3.16 µM, first compound 0.03 µM
[15] = second compound 3.16 µM, first compound 0.0949 µM
[16] = second compound 3.16 µM, first compound 0.3 µM
[17] = second compound 10 µM, first compound 0.00949 µM
[18] = second compound 10 µM, first compound 0.03 µM
[19] = second compound 10 µM, first compound 0.0949 µM
[20] = second compound 10 µM, first compound 0.3 µM
[21] = second compound 0.1 µM, first compound 0.949 µM
[22] = second compound 0.1 µM, first compound 3 µM
[23] = second compound 0.316 µM, first compound 0.949 µM
[24] = second compound 0.316 µM, first compound 3 µM
[25] = second compound 1 µM, first compound 0.949 µM
[26] = second compound 1 µM, first compound 3 µM
[27] = second compound 3.16 µM, first compound 0.949 µM
[28] = second compound 3.16 µM, first compound 3 µM
[29] = second compound 10 µM, first compound 0.949 µM
[30] = second compound 10 µM, first compound 3 µM
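Also: spheroids exposed to agents for seven days before luminescence viability reading.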
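For viability, T/C in this document: 100% = DMSO vehicle control viability.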

## CC1(C)CCC(CN2CCN(c3ccc(C(=O)NS(=O)(=O)c4ccc(NCC5CCOCC5)c([N+](=O)[O-])c4)c(Oc4cnc5[nH]ccc5c4)c3)CC2)=C(c2ccc(Cl)cc2)C1 + NC1CCC(NC2CC2c2ccccc2)CC1
Second compound 0.1 µM
  IC50: 3080 nM
Second compound 0.316 µM
  IC50: 2740 nM
Second compound 1 µM
  IC50: 2280 nM
Second compound 3.16 µM
  IC50: 3110 nM
Second compound 10 µM
  IC50: 3730 nM
Second compound 0.1 µM, first compound 0.0316 µM
  viability, T/C: 80.2%
Second compound 0.1 µM, first compound 0.1 µM
  viability, T/C: 95.5%
Second compound 0.1 µM, first compound 0.316 µM
  viability, T/C: 85%
Second compound 0.1 µM, first compound 1 µM
  viability, T/C: 89.8%
Second compound 0.1 µM, first compound 3.16 µM
  viability, T/C: 49.1%
Second compound 0.1 µM, first compound 10 µM
  viability, T/C: 0.77%
Second compound 0.316 µM, first compound 0.0316 µM
  viability, T/C: 79.5%
Second compound 0.316 µM, first compound 0.1 µM
  viability, T/C: 90.2%
Second compound 0.316 µM, first compound 0.316 µM
  viability, T/C: 88.9%
Second compound 0.316 µM, first compound 1 µM
  viability, T/C: 94.5%
Second compound 0.316 µM, first compound 3.16 µM
  viability, T/C: 44.6%
Second compound 0.316 µM, first compound 10 µM
  viability, T/C: 0.44%
Second compound 1 µM, first compound 0.0316 µM
  viability, T/C: 84%
Second compound 1 µM, first compound 0.1 µM
  viability, T/C: 86%
Second compound 1 µM, first compound 0.316 µM
  viability, T/C: 81.6%
Second compound 1 µM, first compound 1 µM
  viability, T/C: 81.6%
Second compound 1 µM, first compound 3.16 µM
  viability, T/C: 37.6%
Second compound 1 µM, first compound 10 µM
  viability, T/C: 0.69%
Second compound 3.16 µM, first compound 0.0316 µM
  viability, T/C: 87.3%
Second compound 3.16 µM, first compound 0.1 µM
  viability, T/C: 72.9%
Second compound 3.16 µM, first compound 0.316 µM
  viability, T/C: 77.3%
Second compound 3.16 µM, first compound 1 µM
  viability, T/C: 92.2%
Second compound 3.16 µM, first compound 3.16 µM
  viability, T/C: 49.6%
Second compound 3.16 µM, first compound 10 µM
  viability, T/C: 0.87%
Second compound 10 µM, first compound 0.0316 µM
  viability, T/C: 73.9%
Second compound 10 µM, first compound 0.1 µM
  viability, T/C: 92.9%
Second compound 10 µM, first compound 0.316 µM
  viability, T/C: 77.8%
Second compound 10 µM, first compound 1 µM
  viability, T/C: 76.9%
Second compound 10 µM, first compound 3.16 µM
  viability, T/C: 58.4%
Second compound 10 µM, first compound 10 µM
  viability, T/C: 0.69%

## CCc1c2c(nc3ccc(O)cc13)-c1cc3c(c(=O)n1C2)COC(=O)[C@]3(O)CC + NC1CCC(NC2CC2c2ccccc2)CC1
Second compound 0.1 µM
  IC50: < 0.949 nM
Second compound 0.316 µM
  IC50: < 0.949 nM
Second compound 1 µM
  IC50: < 0.949 nM
Second compound 3.16 µM
  IC50: < 0.949 nM
Second compound 10 µM
  IC50: < 0.949 nM
Second compound 0.1 µM, first compound 0.000949 µM
  viability, T/C: 46.4%
Second compound 0.1 µM, first compound 0.003 µM
  viability, T/C: 36.2%
[1]
  viability, T/C: 30.9%
[2]
  viability, T/C: 8.66%
[3]
  viability, T/C: 5.82%
[4]
  viability, T/C: 4.86%
Second compound 0.316 µM, first compound 0.000949 µM
  viability, T/C: 46.2%
Second compound 0.316 µM, first compound 0.003 µM
  viability, T/C: 43.4%
[5]
  viability, T/C: 35%
[6]
  viability, T/C: 10.1%
[7]
  viability, T/C: 4.59%
[8]
  viability, T/C: 4.24%
Second compound 1 µM, first compound 0.000949 µM
  viability, T/C: 41.5%
Second compound 1 µM, first compound 0.003 µM
  viability, T/C: 39%
[9]
  viability, T/C: 31.5%
[10]
  viability, T/C: 9.09%
[11]
  viability, T/C: 5.26%
[12]
  viability, T/C: 4.62%
Second compound 3.16 µM, first compound 0.000949 µM
  viability, T/C: 47.4%
Second compound 3.16 µM, first compound 0.003 µM
  viability, T/C: 43%
[13]
  viability, T/C: 33.2%
[14]
  viability, T/C: 9.39%
[15]
  viability, T/C: 4.03%
[16]
  viability, T/C: 4.04%
Second compound 10 µM, first compound 0.000949 µM
  viability, T/C: 45%
Second compound 10 µM, first compound 0.003 µM
  viability, T/C: 38.1%
[17]
  viability, T/C: 26.3%
[18]
  viability, T/C: 9.03%
[19]
  viability, T/C: 3.67%
[20]
  viability, T/C: 3.1%

## NS(=O)(=O)OCC1CC(n2ccc3c(NC4CCc5ccccc54)ncnc32)CC1O (stereo not given) + NC1CC1c1ccc(-c2cccc(O)c2)cc1
Second compound 0.1 µM
  IC50: 439 nM
Second compound 0.316 µM
  IC50: 570 nM
Second compound 1 µM
  IC50: 479 nM
Second compound 3.16 µM
  IC50: 420 nM
Second compound 10 µM
  IC50: 512 nM
[1]
  viability, T/C: 124%
[2]
  viability, T/C: 155%
[3]
  viability, T/C: 154%
[4]
  viability, T/C: 58.9%
[21]
  viability, T/C: 36.9%
[22]
  viability, T/C: 27%
[5]
  viability, T/C: 128%
[6]
  viability, T/C: 156%
[7]
  viability, T/C: 135%
[8]
  viability, T/C: 71.1%
[23]
  viability, T/C: 37.5%
[24]
  viability, T/C: 25.4%
[9]
  viability, T/C: 114%
[10]
  viability, T/C: 155%
[11]
  viability, T/C: 146%
[12]
  viability, T/C: 62.5%
[25]
  viability, T/C: 36.6%
[26]
  viability, T/C: 26.9%
[13]
  viability, T/C: 110%
[14]
  viability, T/C: 148%
[15]
  viability, T/C: 138%
[16]
  viability, T/C: 55.4%
[27]
  viability, T/C: 43.1%
[28]
  viability, T/C: 30.8%
[17]
  viability, T/C: 155%
[18]
  viability, T/C: 151%
[19]
  viability, T/C: 114%
[20]
  viability, T/C: 61.1%
[29]
  viability, T/C: 40.8%
[30]
  viability, T/C: 23%

## CCN(c1cc(-c2ccc(CN3CCOCC3)cc2)cc(C(=O)NCc2c(C)cc(C)[nH]c2=O)c1C)C1CCOCC1 + NC1CC1c1ccc(-c2cccc(O)c2)cc1
Second compound 0.1 µM
  IC50: > 3000 nM
Second compound 0.316 µM
  IC50: > 3000 nM
Second compound 1 µM
  IC50: > 3000 nM
Second compound 3.16 µM
  IC50: > 3000 nM
Second compound 10 µM
  IC50: > 3000 nM
[1]
  viability, T/C: 113%
[2]
  viability, T/C: 115%
[3]
  viability, T/C: 102%
[4]
  viability, T/C: 103%
[21]
  viability, T/C: 98.9%
[22]
  viability, T/C: 62.8%
[5]
  viability, T/C: 113%
[6]
  viability, T/C: 104%
[7]
  viability, T/C: 118%
[8]
  viability, T/C: 103%
[23]
  viability, T/C: 94.2%
[24]
  viability, T/C: 71.8%
[9]
  viability, T/C: 100%
[10]
  viability, T/C: 112%
[11]
  viability, T/C: 107%
[12]
  viability, T/C: 95.8%
[25]
  viability, T/C: 96.7%
[26]
  viability, T/C: 65.5%
[13]
  viability, T/C: 109%
[14]
  viability, T/C: 126%
[15]
  viability, T/C: 108%
[16]
  viability, T/C: 111%
[27]
  viability, T/C: 96.2%
[28]
  viability, T/C: 69.7%
[17]
  viability, T/C: 127%
[18]
  viability, T/C: 132%
[19]
  viability, T/C: 109%
[20]
  viability, T/C: 127%
[29]
  viability, T/C: 104%
[30]
  viability, T/C: 77.6%
